From a flash point compilation (Sun et al. 2020)

Row | Compound | flash point [°C]
1 | c1ccc([SiH](c2ccccc2)c2ccccc2)cc1 [Triphenylsilane] | 143.20
2 | CCCCCCC[Si](C)(Cl)Cl [n-Heptylmethyldichlorosilane] | 66.00
3 | C=C(C)C(=O)OCCC[Si](OC)(OC)OC [3-Methacryloxypropyltrimethoxysilane] | 92.00
4 | c1ccc([SiH2]c2ccccc2)cc1 [Diphenylsilane] | 98.00
5 | Cl[Si](Cl)(Cl)C1CCCC1 [Cyclopentyltrichlorosilane] | 77.00
6 | C[Si](C)(C)OC(=O)C(F)(F)F [Trimethylsilyltrifluoroacetate] | 0.00
7 | C[Si](Cl)(Cl)Cl [Methyltrichlorosilane] | 3.00
8 | C[SiH](C)C(C)(C)C [t-Butyld imethyl silane] | -22.00
9 | CO[Si](CC(C)C)(OC)OC [Isobutyltrimethoxysilane] | 42.00
10 | CCO[Si](C)(C)CCl [Chloromethyldimethylethoxysilane] | 26.00
11 | C=C(C)O[Si](C)(C)C [Trimethyl[(1-methylethenyl)oxy]silane] | -1.00
12 | C=C[Si](C)(C)OCC [Vinyldimethylethoxysilane] | 4.00
13 | CCCCCC[SiH](Cl)Cl [Hexyldichlorosilane] | 64.00
14 | C=CC=CC[Si](C)(C)C [(2,4-Pentadienyl)trimethylsilane] | 18.00
15 | C[Si](C)(C)c1ccccc1 [Trimethylphenylsilane] | 40.00
16 | CC[Si](CC)(CC)N(C)C [(N,N-Dimethylamino)triethylsilane] | 26.00
17 | C[Si](C)(C)N1CCOCC1 [N-(Trimethylsilyl)morpholine] | 27.00

Second part, the molecule after the results:

Row | flash point [°C] | Compound
18 | 43.00 | CCC[SiH](CCC)CCC [Tri-n-propylsilane]
19 | 12.00 | CCCCCC[SiH3] [Hexylsilane]

Remark: another data set of the same source

Row | Compound | flash point [°C]
20 | C=CCOC(C)=O [Allyl acetate] | 10
21 | CCC(C)O (stereo not given) [sec-Butanol] | 23.0
22 | CCCO [1-PROPANOL] | 18
23 | CCCCCCCc1ccccc1 [Benzene, heptyl-] | 97.5
24 | C=CCOC(C)=O [ALLYL ACETATE] | 22.2
25 | CCC(C)CC(C)(C)CC (stereo not given) [3,3,5-Trimethylheptane] | 31
26 | CCC(C)(C)C(C)(C)C [Pentane, 2,2,3,3-tetramethyl-] | 21.5
27 | CCCCCCc1ccccc1 [1-Phenylhexane] | 83.0
28 | C=CC(=O)OCC(C)C [Isobutyl acrylate] | 31.2
29 | CCCCCCCCCCO [Decyl alcohol] | 104.0
30 | CCCCCCCCCCC=O [Undecanal] | 96.0
31 | CC(Cl)Cl [Ethane, 1,1-dichloro-] | -10.0
32 | CCCC(=O)O [Butyric acid] | 72.0
33 | Cc1cccc(O)c1 [Phenol, 3-methyl-] | 86.0
34 | Cc1cccc(C)n1 [Pyridine, 2,6-dimethyl-] | 33
35 | COC(C)=O [METHYL ACETATE] | -10.0
36 | NCCCN [1,3-Diaminopropane] | 49.0
37 | Cc1cccnc1 [Pyridine, 3-methyl-] | 36.0
38 | C=CC(C)CCC (stereo not given) [1-Hexene, 3-methyl-] | -6.0
39 | CCCCCc1ccccc1 [Benzene, pentyl-] | 66.0
40 | CCCCOC(C)=O [Butyl acetate] | 25.0
41 | C[C@H]1CC[C@@H](C)CC1 [Cyclohexane, 1,4-dimethyl-, cis-] | 11.2

Row | Compound | flash point [°C]
42 | CCCC(C)O (stereo not given) [2-Pentanol] | 34.0
43 | CCOC(C)OCC [Ethane, 1,1-diethoxy-] | 13.0
44 | CCCCCCC(C)O (stereo not given) [2-Octanol] | 71.0
45 | c1ccc(-c2ccc(-c3ccccc3)cc2)cc1 [p-Terphenyl] | 207
46 | CCCCCCCCCCCCCCO [1-TETRADECANOL] | 143
47 | CC(=O)C(C)C [3-Methyl-2-butanone] | -1.0
48 | c1ccc(Oc2ccccc2)cc1 [Diphenyl ether] | 115.0
49 | CCCC#N [Butanenitrile] | 18.0
50 | CCCCC(=O)O [Valeric acid] | 86.0
51 | CC(C)=C(C)C [2-Butene, 2,3-dimethyl-] | -16.0
52 | C=CCCCCCCC [1-Nonene] | 26.0
53 | Cc1cccc(C)c1C [1,2,3-TRIMETHYLBENZENE] | 44.0
54 | Cc1cc(C)cc(C)c1 [Mesitylene] | 44.5
55 | CC(C)CCC(C)C [Hexane, 2,5-dimethyl-] | 2.0
56 | Cc1cccc(O)c1C [2,3-Dimethylphenol] | 95.0
57 | CC(C)Cl [2-Chloropropane] | -34.9
58 | Cc1cccc(C)c1C [1,2,3-Trimethylbenzene] | 51.0
59 | CCCCCCCCCCCCCCO [1-Tetradecanol] | 148.0
60 | CCC(C)C(C)CC (stereo not given) [Hexane, 3,4-dimethyl-] | 7.5
61 | CCCCCC [n-HEXANE] | -21.6
62 | C=CCCCCCCCCCCCCCC [1-HEXADECENE] | 132.0
63 | C=CCCCCCCCCCCCCCCCC [1-Octadecene] | 148.0

Row | Compound | flash point [°C]
64 | COCC(C)OC (stereo not given) [1,2-DIMETHOXYPROPANE] | 0.6
65 | CCC1CCCCC1 [Cyclohexane, ethyl-] | 18.0
66 | Cc1cc(C)c(C)cc1C [1,2,4,5-Tetramethylbenzene] | 73.0
67 | CCc1cccc(CC)c1 [1,3-Diethylbenzene] | 56
68 | CC(=O)C(C)(C)C [Pinacolone] | 9.0
69 | Cc1ccc(C)c(C)c1C [1,2,3,4-Tetramethylbenzene] | 74.0
70 | NC1CCCCC1 [Cyclohexanamine] | 26.5
71 | C=COCCCC [n-Butylvinylether] | -1
72 | Cc1cc(C)c(C)cc1C [1,2,4,5-TETRAMETHYLBENZENE] | 55
73 | CCC(C)CC(C)(C)CC (stereo not given) [3,3,5-TRIMETHYLHEPTANE] | 28
74 | C=CCCCCCCC [1-NONENE] | 22
75 | CCC(C)CC(C)C (stereo not given) [Hexane, 2,4-dimethyl-] | 3.0
76 | COCC(C)OC (stereo not given) [1,2-Dimethoxypropane] | -0.0
77 | CCCCOCC(C)O (stereo not given) [1-Butoxy-2-propanol] | 59.0
78 | CCC#N [Propanenitrile] | 6.0
79 | CCCCCCCCCCCCCCCC [Hexadecane] | 134.0
80 | CCCCCCCCCCCCCCCCCCC [Nonadecane] | 168
81 | CC(C)CCCCC(C)C [Octane, 2,7-dimethyl-] | 37.8
82 | CCC=O [Propionaldehyde] | -29.9
83 | Cc1ccc(C)c(C)c1C [1,2,3,4-TETRAMETHYLBENZENE] | 68.0

More lines, now with the values ahead:

Row | flash point [°C] | Compound
84 | 58.0 | CCC(C)CCO (stereo not given) [1-Pentanol, 3-methyl-]
85 | 48.0 | CCCC(=O)CCC [4-HEPTANONE]
86 | 41 | CCCCCCCC(C)C [Nonane, 2-methyl-]
87 | 34.0 | CCCC(=O)CCC [4-Heptanone]
88 | 50.0 | CCCCOC(=O)CCC [Butanoic acid, butyl ester]
89 | 37.0 | CCCCC(=O)CC [3-Heptanone]
90 | 57 | CCC(CC)CO [2-ETHYL-1-BUTANOL]
91 | 56.0 | CCCCCCC(C)=O [2-Octanone]
92 | 11.0 | CCCCCCl [Pentane, 1-chloro-]
93 | 26.0 | CCCCCCC(C)C [Octane, 2-methyl-]
94 | -6.0 | C=C(C)CCCC [1-Hexene, 2-methyl-]
95 | 6.0 | CCCCC(C)CC (stereo not given) [Heptane, 3-methyl-]
96 | 35.0 | CC(=O)CCC(C)C [2-Hexanone, 5-methyl-]
97 | 11.5 | C=CCCCCCC [1-Octene]
98 | 49.8 | CCCCCCCCCC [Decane]
99 | 215 | O=C(O)CCCCCC(=O)O [PIMELIC acid]
100 | 150.0 | O=C(O)CCCCCC(=O)O [Pimelic acid]
101 | 84 | CCCCCCCCO [1-OCTANOL]
102 | 25.5 | CCCCCC(C)CC (stereo not given) [Octane, 3-methyl-]

Row | flash point [°C] | Compound
103 | 99.0 | CCCCCCCCCOC(C)=O [NONYL ACETATE]
104 | 83.0 | CCCCCCCCOC(C)=O [Acetic acid octyl ester]
105 | 19.0 | CCCCCC(C)(C)C [Heptane, 2,2-dimethyl-]
106 | 21 | CCC(CC)(CC)CC [Pentane, 3,3-diethyl-]
107 | 27 | CCCCCC=O [1-HEXANAL]
108 | 59.0 | CCCCCC(C)O (stereo not given) [2-Heptanol]
109 | -11.0 | CCCC=O [Butyraldehyde]
110 | 6.0 | CCCC(C)CCC [Heptane, 4-methyl-]
111 | 7.0 | CCC(=O)CC [3-Pentanone]
112 | 51.0 | CCCCCCC(C)=O [2-OCTANONE]
113 | 13.0 | CCC(=O)C(C)C [3-Pentanone, 2-methyl-]
114 | 65.0 | CCCCC(=O)CCCC [5-Nonanone]
115 | 12.0 | CCC(C)C(C)=O (stereo not given) [2-Pentanone, 3-methyl-]
116 | 86.6 | CCCCCCCCO [1-Octanol]
117 | 164 | CCCCCCCCCCCC(=O)O [Lauric acid]
118 | 66.0 | CCCCCCC(=O)CC [3-Nonanone]
119 | 72.4 | CCCCCCCC(C)=O [2-Nonanone]
120 | 64.0 | CCCCCCCC(C)=O [2-NONANONE]
121 | 8 | C=CCCCCCC [1-OCTENE]

Remark: another data set of the same source

Row | Compound | flash point [°C]
122 | C=CCOC(C)=O [Allyl acetate] | 21.00
123 | CCCC(C)O (stereo not given) [2-Pentanol] | 39.00
124 | CCCCCCC(C)O (stereo not given) [2-Octanol] | 88.00
125 | CCCCC(=O)O [Valeric acid] | 96.00
